# Test results reported in US20240270821A1, “GIP/GLP1/GCG TRI-RECEPTOR AGONISTS AND USES THEREOF” (priority 2023, published 2024).
# Where two headings read alike, the source gives them in different places. Starred links: 1 amine or outer side, 2 acyl side, 3 side chain; linkers in the order of their positions; H or OH if unused. Non-standard residues stand in square brackets, D forms with d. Groups on a side chain read outwards from the residue. No end group written: not given here. *: point of attachment. C18 diacid = O=C(O)CCCCCCCCCCCCCCCCC(=O)*; αMePhe(2-F) = C[C@](N)(Cc1ccccc1F)C(=O)O; γGlu = O=C(O)[C@H](CCC(=O)[*:2])N[*:1]; αMe4Pal = C[C@](N)(Cc1ccncc1)C(=O)O; αMeY = C[C@](N)(Cc1ccc(O)cc1)C(=O)O; 4Pal = N[C@@H](Cc1ccncc1)C(=O)O; αMeL = CC(C)C[C@](C)(N)C(=O)O; αMeS = C[C@](N)(CO)C(=O)O; Orn = NCCC[C@H](N)C(=O)O; AEEA = NCCOCCOCC(=O)O; Aib = CC(C)(N)C(=O)O
# Columns and labels:
# Assay type in all cases: cell-based
# [1] = molecular target: T1, hGLP-1R (Homo sapiens, UniProt P43220); test: Functional cAMP activation in the presence of 0.1% casein (no HSA); details: read-out: Relative cAMP EC50, hGLP-1R;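 further: intracellular cAMP rise after 30 min at 37 °C read by HTRF, normalized between buffer only (0%) and maximal control ligand (100%), four-parameter variable-slope fit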
# T1 sequence (P43220 24-463): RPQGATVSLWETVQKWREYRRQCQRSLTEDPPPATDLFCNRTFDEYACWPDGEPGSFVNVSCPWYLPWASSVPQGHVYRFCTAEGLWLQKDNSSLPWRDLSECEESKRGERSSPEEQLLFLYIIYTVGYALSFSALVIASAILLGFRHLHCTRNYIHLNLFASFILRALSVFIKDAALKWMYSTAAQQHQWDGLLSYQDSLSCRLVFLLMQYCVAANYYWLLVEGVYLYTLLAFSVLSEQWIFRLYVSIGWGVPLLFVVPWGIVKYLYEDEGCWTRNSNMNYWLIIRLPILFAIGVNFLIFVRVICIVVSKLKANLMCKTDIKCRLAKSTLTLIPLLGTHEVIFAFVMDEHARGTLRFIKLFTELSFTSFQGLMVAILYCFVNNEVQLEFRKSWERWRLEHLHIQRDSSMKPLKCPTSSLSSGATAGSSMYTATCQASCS
# [2] = molecular target: T2, hGIPR (Homo sapiens, UniProt P48546); test: as above; details: read-out: Relative cAMP EC50, hGIPR;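 further: intracellular cAMP rise after 30 min at 37 °C read by HTRF against a standard curve, scaled between buffer alone (0%) and top control ligand concentration (100%), four-parameter fit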
# T2 sequence (P48546 22-466): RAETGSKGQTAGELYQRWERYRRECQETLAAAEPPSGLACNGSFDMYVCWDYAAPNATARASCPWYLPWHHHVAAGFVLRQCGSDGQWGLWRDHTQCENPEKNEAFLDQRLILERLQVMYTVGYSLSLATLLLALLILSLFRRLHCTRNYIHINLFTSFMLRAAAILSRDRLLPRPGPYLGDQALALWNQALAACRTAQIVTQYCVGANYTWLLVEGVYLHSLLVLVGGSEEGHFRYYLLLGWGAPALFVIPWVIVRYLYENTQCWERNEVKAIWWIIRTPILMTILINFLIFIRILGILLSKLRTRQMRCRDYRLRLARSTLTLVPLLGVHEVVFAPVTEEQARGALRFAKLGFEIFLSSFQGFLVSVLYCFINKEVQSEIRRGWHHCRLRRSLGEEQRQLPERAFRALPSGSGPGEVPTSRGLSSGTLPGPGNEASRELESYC
# [3] = molecular target: human GcgR (Homo sapiens, UniProt P47871); test: Functional cAMP activity in the presence of 1% HSA; details: read-out: cAMP Rel EC50, hGcgR
# Sequence of human GcgR (P47871 26-477): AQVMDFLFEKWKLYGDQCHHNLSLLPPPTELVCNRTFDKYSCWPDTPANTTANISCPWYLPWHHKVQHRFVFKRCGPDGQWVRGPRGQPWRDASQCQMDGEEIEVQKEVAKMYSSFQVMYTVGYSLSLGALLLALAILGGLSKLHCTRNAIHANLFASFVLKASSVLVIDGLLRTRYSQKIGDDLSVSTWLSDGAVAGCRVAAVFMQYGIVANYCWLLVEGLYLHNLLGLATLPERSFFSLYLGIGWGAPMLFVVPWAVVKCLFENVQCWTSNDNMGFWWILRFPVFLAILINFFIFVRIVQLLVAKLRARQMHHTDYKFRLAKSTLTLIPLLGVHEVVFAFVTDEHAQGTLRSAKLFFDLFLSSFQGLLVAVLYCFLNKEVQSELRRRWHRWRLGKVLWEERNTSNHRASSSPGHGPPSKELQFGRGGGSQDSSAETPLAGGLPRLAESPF
# [4] = molecular target: T2, hGIPR; test: Functional cAMP activity in the presence of 1% HSA; details: read-out: cAMP Rel EC50, hGIPR
# [5] = molecular target: T1, hGLP-1R; test: Functional cAMP activity in the presence of 1% HSA; details: read-out: cAMP Rel EC50, hGLP-1R
# [6] = molecular target: hGcgR (Homo sapiens, UniProt P47871); test: Functional cAMP activation in the presence of 0.1% casein (no HSA); details: read-out: Relative cAMP EC50, hGcgR;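 further: intracellular cAMP rise after 30 min at 37 °C, read by HTRF against a cAMP standard curve, scaled from buffer only (0%) to maximal control ligand response (100%)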
# Sequence of hGcgR (P47871 26-477): as above
# [7] = in the presence of 0.1% casein (no HSA), geometric mean
# [8] = in the presence of 0.1% casein (no HSA), geometric mean of relative EC50
# [9] = HEK-293 clonal cell line, 1% HSA, geometric mean of relative EC50
Molecule,"EC50 [1, 7]","EC50 [2, 7]",EC50 [3],EC50 [4],EC50 [5],"EC50 [6, 7]",EC50 [1],EC50 [2],EC50 [6],"EC50 [1, 8]","EC50 [2, 8]","EC50 [3, 9]","EC50 [4, 9]","EC50 [5, 9]","EC50 [6, 8]"
H-Y[Aib]QGTFTSD[4Pal]S[Orn][αMeL]LDKK([γGlu-AEEA-γGlu-C18 diacid])AQ[αMe4Pal]AFIEYLIE[Aib]GPSSGAPPPSGS-NH2 [Example 868],5.82 nM,0.208 nM,622 nM,17.7 nM,822 nM,7.4 nM,–,–,–,–,–,–,–,–,–
H-Y[Aib]QGT[αMePhe(2-F)]TSD[4Pal]SI[αMeL]LD[Orn]K([γGlu-γGlu-C18 diacid])AQ[αMe4Pal][Orn]FI[dE][αMeY]LIEGGPSSGEPPPSGE-NH2 [Example 682],–,–,127 nM,0.415 nM,14 nM,–,0.212 nM,0.00661 nM,1.91 nM,–,–,–,–,–,–
CC[C@H](C)[C@H](NC(=O)[C@H](Cc1ccccc1)NC(=O)[C@H](C)NC(=O)[C@](C)(Cc1ccncc1)NC(=O)[C@H](CCC(N)=O)NC(=O)[C@H](C)NC(=O)[C@H](CCCCNC(=O)CC[C@H](NC(=O)CC[C@H](NC(=O)CCCCCCCCCCCCCCCCC(=O)O)C(=O)O)C(=O)O)NC(=O)[C@H](CCCCN)NC(=O)[C@H](CC(=O)O)NC(=O)[C@H](CC(C)C)NC(=O)[C@](C)(CC(C)C)NC(=O)[C@H](CCC(N)=O)NC(=O)[C@H](CO)NC(=O)[C@H](Cc1ccncc1)NC(=O)[C@H](CC(=O)O)NC(=O)[C@H](CO)NC(=O)[C@@H](NC(=O)[C@H](Cc1ccccc1)NC(=O)[C@@H](NC(=O)CNC(=O)[C@H](CCC(N)=O)NC(=O)C(C)(C)NC(=O)[C@@H](N)Cc1ccc(O)cc1)[C@@H](C)O)[C@@H](C)O)C(=O)N[C@@H](CCC(=O)O)C(=O)N[C@@H](Cc1ccc(O)cc1)C(=O)N[C@@H](CC(C)C)C(=O)N[C@H](C(=O)N[C@@H](CCC(=O)O)C(=O)N[C@H](C)C(=O)NCC(=O)N1CCC[C@H]1C(=O)N[C@@H](CO)C(=O)N[C@@H](CO)C(=O)NCC(=O)N[C@@H](C)C(=O)N1CCC[C@H]1C(=O)N1CCC[C@H]1C(=O)N1CCC[C@H]1C(=O)N[C@@H](CO)C(=O)NCC(=O)N[C@@H](CO)C(=O)N[C@@H](CCC(=O)O)C(N)=O)[C@@H](C)CC [Example 1025],2.45 nM,0.18 nM,625 nM,31.5 nM,352 nM,3.22 nM,–,–,–,–,–,–,–,–,–
CC[C@H](C)[C@H](NC(=O)[C@H](CC(C)C)NC(=O)[C@](C)(Cc1ccc(O)cc1)NC(=O)[C@@H](CCC(=O)O)NC(=O)[C@@H](NC(=O)[C@H](Cc1ccccc1)NC(=O)[C@H](CCC(=O)O)NC(=O)C(C)(C)NC(=O)[C@H](C)NC(=O)[C@H](C)NC(=O)[C@H](CCCCNC(=O)COCCOCCNC(=O)CC[C@H](NC(=O)CCCCCCCCCCCCCCCCC(=O)O)C(=O)O)NC(=O)[C@H](CCCN)NC(=O)[C@H](CC(=O)O)NC(=O)[C@H](CC(C)C)NC(=O)[C@](C)(CC(C)C)NC(=O)[C@@H](NC(=O)[C@](C)(CO)NC(=O)[C@H](Cc1ccncc1)NC(=O)[C@H](CC(=O)O)NC(=O)[C@H](CO)NC(=O)[C@@H](NC(=O)[C@](C)(Cc1ccccc1F)NC(=O)[C@@H](NC(=O)CNC(=O)[C@H](CCC(N)=O)NC(=O)C(C)(C)NC(=O)[C@@H](N)Cc1ccc(O)cc1)[C@@H](C)O)[C@@H](C)O)[C@@H](C)CC)[C@@H](C)CC)C(=O)N[C@@H](CCC(=O)O)C(=O)NCC(=O)NCC(=O)N1CCC[C@H]1C(=O)N[C@@H](CO)C(=O)N[C@@H](CO)C(=O)NCC(=O)N[C@@H](CCC(=O)O)C(=O)N1CCC[C@H]1C(=O)N1CCC[C@H]1C(=O)N1CCC[C@H]1C(=O)N[C@@H](CO)C(=O)NCC(=O)N[C@@H](CO)C(=O)N[C@H](CCC(=O)O)C(N)=O [Example 720],–,–,–,–,–,–,–,–,–,0.245 nM,0.0103 nM,239 nM,1.02 nM,28.3 nM,1.78 nM
Y[Aib]QGTFTSDFS[Orn][αMeL]LDKK([AEEA-γGlu-C18 diacid])AQ[Aib]AFIEYLIE[Aib]GPSSGAPPPSGS-NH2 [Example 796],0.602 nM,0.098 nM,1000 nM,17.5 nM,125 nM,5.3 nM,–,–,–,–,–,–,–,–,–
H-Y[Aib]QGT[αMePhe(2-F)]TSD[4Pal][αMeS]I[αMeL]LD[Orn]K([AEEA-γGlu-C18 diacid])AA[Aib]EFI[dE][αMeY]LVEGGPSSGAPPPSGS-NH2 [Example 693],–,–,304 nM,1.1 nM,18 nM,–,0.161 nM,0.0104 nM,2.39 nM,–,–,–,–,–,–
H-Y[Aib]QGT[αMePhe(2-F)]TSD[4Pal][αMeS]ILLD[Orn]K([γGlu-γGlu-C18 diacid])AQ[Aib][Orn]FI[dE][αMeY]LQEGGPSSGEPPPSGAEE-NH2 [Example 575],–,–,484 nM,16.2 nM,37.1 nM,–,0.438 nM,0.321 nM,3.69 nM,–,–,–,–,–,–
H-Y[Aib]QGT[αMePhe(2-F)]TSD[4Pal][αMeS]I[αMeL]LD[Orn]K([γGlu-γGlu-C18 diacid])AQ[αMe4Pal]EFI[dE][αMeY]LIEGGPSSGEPPPSGSE-NH2 [Example 716],–,–,100 nM,0.557 nM,24.1 nM,–,0.321 nM,0.00853 nM,1.12 nM,–,–,–,–,–,–
H-Y[Aib]QGT[αMePhe(2-F)]TSD[4Pal][αMeS]I[αMeL]LD[Orn]K([γGlu-γGlu-C18 diacid])AQ[Aib][Orn]FI[dE]YLIEGGPSSGEPPPSGTGE-NH2 [Example 523],–,–,234 nM,0.869 nM,27.1 nM,–,0.482 nM,0.021 nM,3.79 nM,–,–,–,–,–,–
H-Y[Aib]QGT[αMePhe(2-F)]TSD[4Pal][αMeS]I[αMeL]LD[Orn]K([AEEA-γGlu-γGlu-C18 diacid])AQ[αMe4Pal]EFI[dE][αMeY]LIEGGPSSGEPPPSGGGE-NH2 [Example 1181],0.664 nM,0.0115 nM,203 nM,0.666 nM,48.2 nM,3.34 nM,–,–,–,–,–,–,–,–,–
H-Y[Aib]QGTFTSD[4Pal]S[Orn][αMeL]LD[Orn]K([Glu-Glu-γGlu-C18 diacid])AQ[Aib]AFIE[αMeY]LLEGGPSSGAPPPSGSEE-NH2 [Example 1067],17.6 nM,0.471 nM,1860 nM,86.4 nM,2610 nM,12.6 nM,–,–,–,–,–,–,–,–,–
H-Y[Aib]QGTFTSD[4Pal]SQ[αMeL]LD[Orn]K([γGlu-γGlu-C18 diacid])AQ[αMe4Pal]AFIE[αMeY]LIA[Aib]GPSSGEPPPSGSEE-NH2 [Example 1094],0.623 nM,0.0515 nM,831 nM,5.86 nM,64.4 nM,5.84 nM,–,–,–,–,–,–,–,–,–
H-Y[Aib]QGTFTSD[4Pal]SQ[αMeL]LDKK([AEEA-γGlu-C18 diacid])AQ[αMe4Pal]AFIEYLIE[Aib]GPSSGAPPPSGSEE-NH2 [Example 897],3.29 nM,0.157 nM,658 nM,25.9 nM,557 nM,3.62 nM,–,–,–,–,–,–,–,–,–
H-Y[Aib]QGT[αMePhe(2-F)]TSD[4Pal][αMeS]I[αMeL]LD[Orn]K([γGlu-γGlu-C18 diacid])AQ[Aib][Orn]FI[dE][αMeY]LAEGGPSSGEPPPSGTE-NH2 [Example 544],–,–,171 nM,2.4 nM,43 nM,–,0.623 nM,0.041 nM,2.71 nM,–,–,–,–,–,–
Y[Aib]QGT[αMePhe(2-F)]TSD[4Pal][αMeS]I[αMeL]LD[Orn]K([γGlu-γGlu-C18 diacid])AQ[αMe4Pal]EFI[dE][αMeY]LVEGGPSSGAPPPSGSE-NH2 [Example 1162],0.372 nM,0.00818 nM,199 nM,0.656 nM,34.5 nM,2.55 nM,–,–,–,–,–,–,–,–,–
